Earlier results on one compound are cited in publication PMC10066365, “Nemacol is a small molecule inhibitor of C. elegans vesicular acetylcholine transporter with anthelmintic potential” (Nature Communications, 2023).

The series deals with HEK293 cells. The following applies: cited from earlier work.

For the compound `CCC1CCC(N2CCN(c3ccc([N+](=O)[O-])cc3)CC2)CC1` (centres unmarked) [Nemacol-2], the “result in previous counter-screens” value is “adverse effects”. In addition, under “ref Burns et al., 2015”, the “activity in preliminary HEK293 cell-based assays” value was “higher activity”.
